We go through six compounds from patent US11713344B2 (DONG-A ST CO., LTD., priority 2017, dated 2023).

One assay addresses Human GLP-1 receptors (Homo sapiens, UniProt P43220). The experiment in a line: GLP-1 receptor activation assay (CRE-luciferase reporter, CHO-K1). On the technique in general: In a reporter assay the amount or activity of a reporter protein is the signal.
The target in another assay is Human glucagon receptors (Homo sapiens, UniProt P47871). The experiment in a line: Glucagon receptor activation assay (CRE-luciferase reporter, CHO-K1).

pEC50: −log10 of the molar value.

Human GLP-1 receptors, sequence (P43220 24-463): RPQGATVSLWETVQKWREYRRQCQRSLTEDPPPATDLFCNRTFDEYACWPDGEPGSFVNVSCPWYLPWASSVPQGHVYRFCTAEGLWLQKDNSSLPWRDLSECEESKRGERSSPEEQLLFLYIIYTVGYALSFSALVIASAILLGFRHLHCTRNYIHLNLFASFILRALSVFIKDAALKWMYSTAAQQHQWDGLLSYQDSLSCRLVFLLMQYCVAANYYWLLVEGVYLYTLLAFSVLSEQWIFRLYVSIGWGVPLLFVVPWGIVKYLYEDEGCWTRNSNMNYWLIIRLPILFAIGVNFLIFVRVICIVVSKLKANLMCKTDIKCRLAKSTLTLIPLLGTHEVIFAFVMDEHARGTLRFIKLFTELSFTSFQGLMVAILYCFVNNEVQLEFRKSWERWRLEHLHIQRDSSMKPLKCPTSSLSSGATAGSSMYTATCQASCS
Human glucagon receptors, sequence (P47871 26-477): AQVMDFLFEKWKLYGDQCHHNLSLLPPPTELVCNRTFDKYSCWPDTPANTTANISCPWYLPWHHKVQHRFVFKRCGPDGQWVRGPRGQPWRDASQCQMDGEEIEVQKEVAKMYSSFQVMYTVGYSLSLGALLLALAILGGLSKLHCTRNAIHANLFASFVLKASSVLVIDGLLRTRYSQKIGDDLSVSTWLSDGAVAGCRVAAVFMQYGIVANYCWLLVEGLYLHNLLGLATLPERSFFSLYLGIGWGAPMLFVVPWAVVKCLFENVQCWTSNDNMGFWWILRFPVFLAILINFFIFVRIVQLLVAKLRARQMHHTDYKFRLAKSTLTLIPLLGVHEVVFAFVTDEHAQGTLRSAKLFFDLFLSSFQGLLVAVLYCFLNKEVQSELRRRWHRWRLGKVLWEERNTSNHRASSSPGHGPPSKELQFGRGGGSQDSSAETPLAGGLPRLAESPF

On to `CCCCCCCCCCCCCCCCCC(=O)N[C@@H](CCC(=O)N[C@@H](CCC(=O)NCCOCCOCC(=O)NCCOCCOCC(=O)NCCCC[C@H](NC(=O)[C@H](CC(=O)O)NC(=O)[C@H](CO)NC(=O)[C@@H](NC(=O)[C@H](Cc1ccccc1)NC(=O)[C@@H](NC(=O)CNC(=O)[C@H](CCC(N)=O)NC(=O)C(C)(C)NC(=O)[C@@H](N)Cc1c[nH]cn1)[C@@H](C)O)[C@@H](C)O)C(=O)N[C@@H](CO)C(=O)N[C@@H](CCCCN)C(=O)N[C@@H](Cc1ccc(O)cc1)C(=O)N[C@@H](CC(C)C)C(=O)N[C@@H](CC(=O)O)C(=O)NC(C)(C)C(=O)N[C@@H](CCCNC(=N)N)C(=O)N[C@@H](CCCNC(=N)N)C(=O)N[C@@H](C)C(=O)N[C@@H](CCC(N)=O)C(=O)N[C@@H](CC(=O)O)C(=O)N[C@@H](Cc1ccccc1)C(=O)N[C@H](C(=O)N[C@@H](CCC(N)=O)C(=O)N[C@@H](Cc1c[nH]c2ccccc12)C(=O)N[C@@H](CC(C)C)C(=O)N[C@@H](CCSC)C(=O)N[C@@H](CC(N)=O)C(=O)N[C@H](C(=O)N[C@@H](CCCCN)C(=O)O)[C@@H](C)O)C(C)C)C(=O)O)C(=O)O` [Compound 9], for which the pEC50 on Human GLP-1 receptors and on Human glucagon receptors was above 11.00 throughout.
As for `CCCCCCCCCCCCCCCCCC(=O)N[C@@H](CCC(=O)NCCOCCOCC(=O)NCCOCCOCC(=O)NCCCC[C@H](NC(=O)[C@H](CC(=O)O)NC(=O)[C@H](CO)NC(=O)[C@@H](NC(=O)[C@H](Cc1ccccc1)NC(=O)[C@@H](NC(=O)CNC(=O)[C@H](CCC(N)=O)NC(=O)C(C)(C)NC(=O)[C@@H](N)Cc1c[nH]cn1)[C@@H](C)O)[C@@H](C)O)C(=O)N[C@@H](CO)C(=O)N[C@@H](CCCCN)C(=O)N[C@@H](Cc1ccc(O)cc1)C(=O)N[C@@H](CC(C)C)C(=O)N[C@@H](CC(=O)O)C(=O)N[C@H]1CCC(=O)NCC(=O)NCCCC[C@@H](C(=O)N[C@@H](CC(=O)O)C(=O)N[C@@H](Cc2ccccc2)C(=O)N[C@H](C(=O)N[C@@H](CCC(N)=O)C(=O)N[C@@H](Cc2c[nH]c3ccccc23)C(=O)N[C@@H](CC(C)C)C(=O)N[C@@H](CCSC)C(=O)N[C@@H](CC(N)=O)C(=O)N[C@H](C(=O)N[C@@H](CCCCN)C(=O)O)[C@@H](C)O)C(C)C)NC(=O)[C@H](C)NC(=O)[C@H](CCCNC(=N)N)NC(=O)[C@H](CCCNC(=N)N)NC1=O)C(=O)O` [Compound 35, H-HAibQGTFTSDZSKYLDERRAKDFVQWLMNTK-OH], the pEC50 on Human GLP-1 receptors and at Human glucagon receptors was above 11.00 in each case.
Regarding `CCCCCCCCCCCCCCCCCC(=O)N[C@@H](CCC(=O)NCCOCCOCC(=O)NCCOCCOCC(=O)NCCCC[C@H](NC(=O)[C@H](CC(=O)O)NC(=O)[C@H](CO)NC(=O)[C@@H](NC(=O)[C@H](Cc1ccccc1)NC(=O)[C@@H](NC(=O)CNC(=O)[C@H](CCC(N)=O)NC(=O)C(C)(C)NC(=O)[C@@H](N)Cc1c[nH]cn1)[C@@H](C)O)[C@@H](C)O)C(=O)N[C@@H](CO)C(=O)N[C@@H](CCCCN)C(=O)N[C@@H](Cc1ccc(O)cc1)C(=O)N[C@@H](CC(C)C)C(=O)N[C@@H](CC(=O)O)C(=O)N[C@H]1CCCCNC(=O)C[C@@H](C(=O)N[C@@H](CC(=O)O)C(=O)N[C@@H](Cc2ccccc2)C(=O)N[C@H](C(=O)N[C@@H](CCC(N)=O)C(=O)N[C@@H](Cc2c[nH]c3ccccc23)C(=O)N[C@@H](CC(C)C)C(=O)N[C@@H](CCSC)C(=O)N[C@@H](CC(N)=O)C(=O)N[C@H](C(=O)N[C@@H](CCCCN)C(=O)O)[C@@H](C)O)C(C)C)NC(=O)[C@H](C)NC(=O)[C@H](CCCNC(=N)N)NC(=O)[C@H](CCCNC(=N)N)NC1=O)C(=O)O` [Compound 27, H-HAibQGTFTSDZSKYLDKRRADDFVQWLMNTK-OH], the pEC50 on Human GLP-1 receptors and on Human glucagon receptors was above 11.00 in each case.
Regarding `CCCCCCCCCCCCCCCCCC(=O)N[C@@H](CCC(=O)NCCOCCOCC(=O)NCCOCCOCC(=O)NCCCC[C@H](NC(=O)[C@H](CC(=O)O)NC(=O)[C@H](CO)NC(=O)[C@@H](NC(=O)[C@H](Cc1ccccc1)NC(=O)[C@@H](NC(=O)CNC(=O)[C@H](CCC(N)=O)NC(=O)C(C)(C)NC(=O)[C@@H](N)Cc1c[nH]cn1)[C@@H](C)O)[C@@H](C)O)C(=O)N[C@@H](CO)C(=O)N[C@@H](CCCCN)C(=O)N[C@@H](Cc1ccc(O)cc1)C(=O)N[C@@H](CC(C)C)C(=O)N[C@@H](CC(=O)O)C(=O)N[C@H]1CCC(=O)NCCCC[C@@H](C(=O)N[C@@H](CC(=O)O)C(=O)N[C@@H](Cc2ccccc2)C(=O)N[C@H](C(=O)N[C@@H](CCC(N)=O)C(=O)N[C@@H](Cc2c[nH]c3ccccc23)C(=O)N[C@@H](CC(C)C)C(=O)N[C@@H](CCSC)C(=O)N[C@@H](CC(N)=O)C(=O)N[C@H](C(=O)N[C@@H](CCCCN)C(=O)O)[C@@H](C)O)C(C)C)NC(=O)[C@H](C)NC(=O)[C@H](CCCNC(=N)N)NC(=O)[C@H](CCCNC(=N)N)NC1=O)C(=O)O` [Compound 14, H-HAibQGTFTSDZSKYLDERRAKDFVQWLMNTK-OH], the pEC50 on Human GLP-1 receptors and at Human glucagon receptors was above 11.00 each time.
For the compound `CCCCCCCCCCCCCCCCCC(=O)N[C@@H](CCC(=O)NCCOCCOCC(=O)NCCOCCOCC(=O)NCCCC[C@H](NC(=O)[C@H](CC(=O)O)NC(=O)[C@H](CO)NC(=O)[C@@H](NC(=O)[C@H](Cc1ccccc1)NC(=O)[C@@H](NC(=O)CNC(=O)[C@H](CCC(N)=O)NC(=O)C(C)(C)NC(=O)[C@@H](N)Cc1c[nH]cn1)[C@@H](C)O)[C@@H](C)O)C(=O)N[C@@H](CO)C(=O)N[C@@H](CCCCN)C(=O)N[C@@H](Cc1ccc(O)cc1)C(=O)N[C@@H](CC(C)C)C(=O)N[C@@H](CC(=O)O)C(=O)N[C@H]1CC(=O)NCCCC[C@@H](C(=O)N[C@@H](CC(=O)O)C(=O)N[C@@H](Cc2ccccc2)C(=O)N[C@H](C(=O)N[C@@H](CCC(N)=O)C(=O)N[C@@H](Cc2c[nH]c3ccccc23)C(=O)N[C@@H](CC(C)C)C(=O)N[C@@H](CCSC)C(=O)N[C@@H](CC(N)=O)C(=O)N[C@H](C(=O)N[C@@H](CCCCN)C(=O)O)[C@@H](C)O)C(C)C)NC(=O)[C@H](C)NC(=O)[C@H](CCCNC(=N)N)NC(=O)[C@H](CCCNC(=N)N)NC1=O)C(=O)O` [Compound 26, H-HAibQGTFTSDZSKYLDDRRAKDFVQWLMNTK-OH], the pEC50 at Human GLP-1 receptors and on Human glucagon receptors was above 11.00 each time.
Regarding `CSCC[C@H](NC(=O)[C@H](CC(C)C)NC(=O)[C@H](Cc1c[nH]c2ccccc12)NC(=O)[C@H](CCC(N)=O)NC(=O)[C@@H](NC(=O)[C@H](Cc1ccccc1)NC(=O)[C@H](CC(=O)O)NC(=O)[C@H](CCC(N)=O)NC(=O)[C@H](C)NC(=O)[C@H](CCCNC(=N)N)NC(=O)[C@H](CCCNC(=N)N)NC(=O)C(C)(C)NC(=O)[C@H](CC(=O)O)NC(=O)[C@H](CC(C)C)NC(=O)[C@H](Cc1ccc(O)cc1)NC(=O)[C@H](CCCCN)NC(=O)[C@H](CO)NC(=O)[C@H](CCCCNC(=O)COCCOCCNC(=O)COCCOCCNC(=O)CC[C@H](NC(=O)CCCCCCCCCCCCCCC(=O)NCC(=O)O)C(=O)O)NC(=O)[C@H](CC(=O)O)NC(=O)[C@H](CO)NC(=O)[C@@H](NC(=O)[C@H](Cc1ccccc1)NC(=O)[C@@H](NC(=O)CNC(=O)[C@H](CCC(N)=O)NC(=O)C(C)(C)NC(=O)[C@@H](N)Cc1c[nH]cn1)[C@@H](C)O)[C@@H](C)O)C(C)C)C(=O)N[C@@H](CC(N)=O)C(=O)N[C@H](C(=O)N[C@@H](CCCCN)C(=O)O)[C@@H](C)O` [Compound 45], the pEC50 at Human GLP-1 receptors and at Human glucagon receptors was 9.00 to 10.00 throughout.
